Data from article PMC12156033, “N-Alkylamino Stilbene Compounds as Amyloid β Inhibitors for Alzheimer’s Disease Research” (Molecules, 2025).
“Also recorded” adds a separate entry of the source.

Key:
[1] = target: T1, amyloid plaques in 5xFAD mice brain sections (Homo sapiens, UniProt P05067); experiment: Histological staining of 5xFAD mice brain sections, colocalization with HJ3.4 antibody; format: binding, mouse; settings: 11-month-old 5xFAD mice brain sections, compound 25 μM, HJ3.4 1 μg/mL
T1 construct: the amyloid beta (Aβ) peptide that makes up amyloid plaques; tissue Jackson Laboratories; host or cells: brain sections from 11-month-old 5xFAD transgenic mice (Tg6799 line)
T1 sequence (P05067 672-713 limits assumed): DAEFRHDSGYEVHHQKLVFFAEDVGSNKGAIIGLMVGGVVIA
Description: To further investigate the affinity of the developed compounds toward various Aβ aggregates in situ, the intrinsic fluorescence properties of the compounds were employed for their ability to stain insoluble amyloid plaques. For these studies, brain sections from 11-month-old 5xFAD transgenic mice, which rapidly develop severe amyloid pathology, were co-stained with stilbenes and HJ3.4 antibody. HJ3.4 is an anti-amyloid antibody that binds to the N-terminal region of the Aβ peptide, thereby targeting both soluble and insoluble amyloid species. To evaluate the Aβ binding specificity of the compounds in vitro, brain sections from 11-month-old 5xFAD mice were washed with PBS (3 × 5 min) and blocked with bovine serum albumin (2% w/v BSA in PBS, pH 7.4, 10 min). Then, the sections were incubated with 25 μM of multifunctional compounds and sequentially stained with HJ3.4 antibody (Professor David Holtzman, 1 μg/mL) for 30 min. The brain sections were treated with 2% w/v BSA-PBS again for 4 min to remove any compounds or antibodies that were non-specifically binding to the tissue. Finally, the sections were washed with PBS (3 × 2 min) and DI water (2 min) and mounted with non-fluorescent mounting media (Vectashield). Colocalization analysis and determination of Pearson’s correlation coefficient were performed with the imaging software Fiji (ImageJ 1.52p). Mouse brains were harvested in compliance with the Institutional Animal Care and Use Committee of the University of Illinois at Urbana-Champaign (IACUC protocol #22094).

[2] = Log D measurement octanol/PBS; format: physicochemical; settings: octanol / PBS pH 7.4, 10 μM, triplicate, ± SD
Method: The determination of log D values for N-alkylamino multifunctional compounds was performed using a slightly modified reported procedure. The compounds (final concentration 10 μM) were added to the premix suspension containing 0.5 mL octanol and 0.5 mL octanol-saturated PBS buffer (pH = 7.4). The resulting mixture was stirred vigorously for 5 min and centrifuged at 2000 rpm for 5 min. The octanol layer was separated from the PBS layer, and the fluorescence spectrum was recorded. The remaining 0.5 mL PBS layer was partitioned with 0.5 mL PBS-saturated octanol, and the octanol layer was separated after 5 min of vigorous shaking and centrifuging. The fluorescence spectrum of the octanol layer was recorded. The log D value was calculated based on the fluorescence intensity ratio for the two octanol layers. Each experiment was completed in triplicate, and the error represents the standard deviation for the average log D values.

[3] = Alamar blue cytotoxicity assay; format: cell-based, mouse; settings: mouse, Neuro2A (N2A) neuroblastoma cells, highest tested concentration (20 μM), 40 h, normalized to DMSO-only control, read-out: cell viability
Method: (§1) Mouse neuroblastoma Neuro2A (N2A) cell lines were purchased from the American Type Culture Collection (ATCC), Manassas, VA, USA. Cells were grown in DMEM/10% FBS, which is the regular growth media for N2A cells, in a humidified atmosphere with 5% CO2 at 37 °C. N2A cells were seeded in a clear 96-well plate (2.5 × 10^4/well) with DMEM/10% FBS. The media was changed to DMEM/N-2 media 24 h later. After 1 h, the treatment reagents were added. Owing to the poor solubility of compounds in the media, the final amount of DMSO used was 1% (v/v). After an additional incubation of 40 h, Alamar Blue solution was added to each well, and the cells were incubated for 90 min at 37 °C. Fluorescence intensity was measured at 590 nm (excitation wavelength = 560 nm).
(§2) The Alamar Blue assay was carried out as described, with the following treatment reagents: 20 μM compounds, 10 μM compounds, 5 μM compounds, and 2 μM compounds.

[4] = target: T2, soluble Aβ42 aggregates (sAβ) (Homo sapiens, UniProt P05067); experiment: Fluorescence spectra of compounds with soluble Aβ42 aggregates; format: binding; settings: excitation 380 nm; compound 5.0 µM in PBS with soluble Aβ aggregates
T2 construct: commercial Aβ42 peptide (AnaSpec or GL Biochem); purchased AnaSpec or GL Biochem
T2 sequence (P05067 672-713 limits assumed): as above
Method: (§3) All fluorescence measurements were performed using a SpectraMax M2e plate reader (Molecular Devices, San Jose, CA, USA). The fluorescence spectra of the compounds’ solution (100 μL PBS, 5.0 µM) were recorded with excitation at 380 nm and an emission wavelength from 400 to 680 nm. To PBS solutions (100 μL) of the compounds (5.0 µM), various Aβ42 species were added, with final concentrations of 5.0 µM and 25.0 µM, and their fluorescence spectra (λmax of emission) were determined as described above.
(§4) Aβ42 powder was prepared by dissolving commercial Aβ42 peptide (AnaSpec or GL Biochem) in ammonium hydroxide solution (1%, v/v). The solution was then aliquoted out and lyophilized overnight. The resulting aliquoted powder was stored at −80 °C. Aβ42 monomers were generated by dissolving Aβ42 powder in 1,1,1,3,3,3-hexafluoro-2-propanol (HFIP, 1 mM) and incubating for 1 h at room temperature. The solution was then evaporated overnight and dried by vacuum centrifuge to result in monomeric films. Aβ42 fibrils were generated by dissolving the monomeric Aβ42 films in DMSO, diluting into the appropriate buffer, and incubating for 24 h at 37 °C with continuous agitation (final DMSO concentration was <2%). For the preparation of Aβ42 oligomers, the peptides were suspended in PBS buffer and incubated overnight at 4 °C.

Aβ42 fibrils = target: T3, Aβ42 fibrils (Homo sapiens, UniProt P05067); experiment: Fluorescence spectra of compounds with Aβ42 fibrils; format: binding; settings: excitation 380 nm; compound 5.0 µM in PBS with Aβ fibrils
T3 construct: commercial Aβ42 peptide (AnaSpec or GL Biochem); purchased AnaSpec or GL Biochem
T3 sequence (P05067 672-713 limits assumed): as above
Method: as §3, §4

[5] = Fluorescence spectra of the compounds alone in PBS; format: physicochemical; settings: excitation 380 nm; compound 5.0 µM in PBS
Method: as §3

[6] = test system: Cu-Aβ42 cytotoxicity on N2a cells; experiment: N2a cell rescue from Cu-induced Aβ42 cytotoxicity (Alamar blue); format: cell-based, mouse; settings: [Aβ42] = [CuCl2] = 20 μM, compound 5 μM
Method: as §1
The Alamar Blue assay was carried out as described, with the following treatment reagents: 20 μM Aβ42 species, 5 μM compounds, and 20 μM CuCl2.

[7] = target: T4, Aβ aggregates (sAβ and Aβ fibrils) (Homo sapiens, UniProt P05067); experiment: Fluorescence turn-on assay with Aβ aggregates; format: binding; settings: compound 5 μM in PBS pH 7.4
T4 construct: commercial Aβ42 peptide (AnaSpec or GL Biochem); purchased AnaSpec or GL Biochem
T4 sequence (P05067 672-713 limits assumed): as above
Method: A fluorescence turn-on assay was performed to interrogate the effect of structural differences on the fluorescence enhancement with Aβ aggregates. […] Increases in fluorescence intensity with different aggregates would be ideal for tools used in amyloid-based assays. […] Without the ortho-methoxy group on the EAG, there is greater fluorescence enhancement for Aβ fibrils over sAβ for L3 and L4. […] The larger fluorescence enhancement observed for L6 than L5 indicates the dimethylamine EDG/methoxy EAG pair has a greater TICT. The piperidine-EDG-containing L7 has only slightly higher turn-on with sAβ, which may be attributed to the ortho-methoxy group on the EAG. […] In this case, it appears that the methoxy on the EAG diminishes the overall fluorescence of the compound since L8 has greater baseline fluorescence and turn-on than L7. This is also the case for the morpholine-EDG-containing L9 and L10. The lack of a methoxy group on the L10 EAG, in conjunction with the oxygen heteroatom from the morpholine EDG, electronically favors turn-on with Aβ fibrils to a slight extent. […] Changing the EDG to a methyl piperazine, L11, increases baseline fluorescence and turn-on compared to L9. […] L11 and L12, both containing an N-methyl piperazine EDG, show similar turn-on with sAβ and fibrils, and the o-methoxy EAG of L11 increases overall baseline fluorescence compared to L12. […] The spectra for the remaining compounds can be found in the Supplementary Information (Figure S1). None of the three compounds with the highest fluorescence contained an o-methoxy group on the EAG.
as §3, with “above. […]” for “above.”

Aβ40 peptide = target: T5, Aβ40 peptide (Homo sapiens, UniProt P05067); experiment: Aβ40 aggregation inhibition assay monitored by ThT fluorescence; format: biochemical; settings: 25 μM Aβ40, 5 μM ThT, 5 μM compound, 37 °C, 48 h
T5 construct: a peptide solution of 25 μM Aβ40 monomers (AnaSpec, Fremont, CA, USA) was prepared; purchased AnaSpec
T5 sequence (P05067 672-711 limits assumed): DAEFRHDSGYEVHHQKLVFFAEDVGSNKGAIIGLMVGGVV
Method: To investigate the effect of these compounds on amyloid aggregation, inhibition of aggregation assays were performed using the Aβ40 peptide. Aβ40 has been implicated in inducing oxidative stress and is physiologically the most common isoform of the amyloid peptide and is therefore a widely used isoform in amyloid assays. Aβ40 is also known to have slower aggregation kinetics than Aβ42, which is helpful for studying the inhibition of the early aggregation pathway. […] Thus, a lower RFU can be interpreted as inhibiting the fibrillization of amyloids. The rest of the compounds show appreciable inhibition of Aβ aggregation as found in the Supplementary Materials (Figure S2), except for L9, which contains the morpholine EDG and a methoxy group on the EAG (Figure 3). The addition of the more polar oxygen heteroatom may instead favor hydrogen bonding interactions within the aqueous media, thereby solvating the compound and reducing early interactions with soluble aggregates. Lastly, although L2 and L3 show similar amyloid inhibition, the L3 compound lacking the o-methoxy group begins inhibition at an earlier time. […] This procedure was established in a previous publication.

N2a cells = experiment: Alamar blue cytotoxicity assay; format: cell-based, mouse; settings: among the cyclic amine EDG derivatives
Method: as §1, §2

soluble Aβ42 = soluble Aβ42 (Homo sapiens, UniProt P05067); experiment: ThT control fluorescence turn-on assay with soluble Aβ42; format: binding; settings: [Aβ42] = 5 μM, em 485 nm, ex 435 nm
Chain of soluble Aβ42 (P05067 672-713 limits assumed): as the sequence (P05067 672-713 limits assumed) above
Method: Aβ42 and Aβ42 fibrils was used to control for soluble vs. insoluble amyloid.
text to prepare soluble and fibrillar Aβ42, the UV-vis absorbance was measured for the soluble
Aβ42 used in the control. In a cuvette, 100 μL o f [ A β42] = 20 μM. […]

Row | Structure (SMILES) | Pearson's coefficient (R) of colocalization with AF594-HJ3.4 [1] | logD [2] | viability at 40 h, 20 µM [3] [%] | Compound+sAβ λem (λmax of emission) [4] [nm] | Compound+Fibrils λem (λmax of emission) (Aβ42 fibrils) [nm] | Compound λem (λmax of emission) [5] [nm] | effect on Cu-stabilized Aβ42 / Aβ42-induced toxicity [6] | fluorescence enhancement / turn-on with Aβ aggregates [7] | inhibition of Aβ40 aggregation (ThT RFU) (Aβ40 peptide) | cell viability (ranking in words) (N2a cells) | fluorescence turn-on (soluble Aβ42)
1 | CNc1ccc(/C=C/c2cc(CN3CCN(C)CCN(C)CC3)c(O)c(OC)c2)cc1 [Compound L2, (E)-2-((4,7-dimethyl-1,4,7-triazonan-1-yl)methyl)-6-methoxy-4-(4-(methylamino)styryl)phenol] | 0.54 | 1.48 ± 0.02 | 88 | 440 | 440 | 460 |  |  |  |  | 
2 | CN1CCN(C)CCN(Cc2cc(/C=C/c3ccc(N4CCCCC4)cc3)ccc2O)CC1 [Compound L8, (E)-2-((4,7-dimethyl-1,4,7-triazonan-1-yl)methyl)-4-(4-(piperidin-1-yl)styryl)phenol] | 0.68 | 1.29 ± 0.01 |  | 430 | 430 | 460 | toxicity was exacerbated | highest fluorescence turn-on; also recorded: greatest overall fluorescence enhancements | best inhibition |  | 
3 | COc1cc(/C=C/c2ccc(N3CCOCC3)cc2)cc(CN2CCN(C)CCN(C)CC2)c1O [Compound L9, (E)-2-((4,7-dimethyl-1,4,7-triazonan-1-yl)methyl)-6-methoxy-4-(4-morpholinostyryl)phenol] | 0.71 | 0.93 ± 0.02 |  | 455 | 450 | 455 | inhibit both Cu-stabilized Aβ42- and Aβ42-induced toxicity; also recorded: rescue cells from Cu-Aβ42 cytotoxicity |  | least inhibition | best cell viability | 
4 | CN1CCN(C)CCN(Cc2cc(/C=C/c3ccc(N4CCN(C)CC4)cc3)ccc2O)CC1 [Compound L12, (E)-2-((4,7-dimethyl-1,4,7-triazonan-1-yl)methyl)-4-(4-(4-methylpiperazin-1-yl)styryl)phenol] | 0.65 | 0.81 ± 0.01 |  | 430 | 435 | 450 | rescue cells from Cu-Aβ42 cytotoxicity |  |  | best cell viability | 
5 | Cc1ccc2c(c1)sc(-c1ccc(N(C)C)cc1)[n+]2C [ThT, Thioflavin T] |  |  |  |  |  |  |  |  |  |  | negligible turn-on
